The subject of the assay is gut-liver interaction with immune cells. The assay can be described thus: donor-matched gut-liver interaction with immune cells challenged with Poly:IC. Type of assay: cell-based, human. The conditions noted are these: intestinal challenge, mimicking viral infection, FIG. 12. An excerpt: A single-cell RNA sequencing characterization of 3 donor-matched blood, gut and liver tissue is shown at 1202. On top, T cell clustering per tissue is shown, including PBMCS (PB), liver (L), and gut lamina propria (LP) and intraepithelial space (IEL). On the bottom, a distribution of major T cell subtypes per tissue is shown including CD4 T cells, CD8 T cells, and gamma-delta T cells. […] The interacting system was challenged with Poly:IC mimicking viral infection. […] On the bottom, liver albumin production data compare the three conditions.

The text below walks through data of US20250122456A1, “MICRO-PHY[…] FOR IMMUNE RESPONSE MODELING” (priority 2023, published 2025).

Regarding Poly: IC, the “inflammatory cytokines detected in common media” value is listed as “significant induction”.
